Common to all, as to type: cell-based
Experiment [1] concerns A2780Cis (cisplatin-resistant human ovarian cancer). The experiment can be described thus: In vitro cytotoxicity, SRB assay, A2780Cis. Particulars: for IC50: Homo sapiens, A2780cis, read-out: IC50 (nM) A2780Cis. (In SRB staining, fixed cells bind dye roughly in proportion to their protein.)
The subject of experiment [2] is PLC/PRF/5 (human liver cancer). Put plainly: cells. Conditions: Table 4; PLC/PRF/5 human liver cancer cells; read-out: IC50 (nM) PLC/PRF/5.
The subject of experiment [3] is MV-4-11 (human biphenotypic leukaemia). The experiment can be described thus: In vitro cytotoxicity, MTT assay, MV-4-11. Conditions: for IC50: Homo sapiens, MV4-11, read-out: IC50 (nM) MV4-11.
For experiment [4], the system named is MIA PaCa-2 (human pancreatic cancer). Put plainly: cells. Particulars: Table 4; MIA PaCa-2 human pancreatic cancer cells; read-out: IC50 (nM) MIA PaCa-2.
For another experiment, the system named is Hs294T (human melanoma). The experiment can be described thus: cells. Particulars: Hs 294T; Table 4; Hs294T human melanoma cells; read-out: IC50 (nM) Hs294T.
Experiment [5] deals with BALB/3T3 (normal mouse fibroblasts). The experiment can be described thus: In vitro cytotoxicity, SRB assay, normal BALB/3T3 fibroblasts. Particulars: Table 5; BALB/3T3 normal mouse fibroblasts; read-out: IC50 (nM) BALB3T3 normal cells.

In the case of `CC[C@@H](C(=O)[C@@H](C)[C@@H](O)[C@H](C)[C@@H]1O[C@@H]([C@@H](CC)C(=O)O)CC[C@@H]1C)[C@H]1O[C@]2(C=C[C@@H](NC(=O)C(=O)NCCCn3ccnc3)[C@]3(CC[C@@](C)([C@H]4CC[C@](O)(CC)[C@H](C)O4)O3)O2)[C@H](C)C[C@@H]1C` [FLC-00392-1•Na], the IC50 in experiment [1] was determined as 3750 nM; in experiment [2], 8330 nM; in experiment [3] it was 1960 nM.
Turning to `CCCCCCCCCCCCCCCCOC(=O)N[C@@H]1C=C[C@]2(O[C@H]([C@@H](CC)C(=O)[C@@H](C)[C@@H](O)[C@H](C)[C@@H]3O[C@@H]([C@@H](CC)C(=O)O)CC[C@@H]3C)[C@@H](C)C[C@H]2C)O[C@@]12CC[C@@](C)([C@H]1CC[C@](O)(CC)[C@H](C)O1)O2` [FLC-00410-1•Na], the IC50 stood at 7700 nM in experiment [1] and 3740 nM in experiment [3].
Consider `CC[C@@H](C(=O)[C@@H](C)[C@@H](O)[C@H](C)[C@@H]1O[C@@H]([C@@H](CC)C(=O)O)CC[C@@H]1C)[C@H]1O[C@]2(C=C[C@@H](NC(=O)C(=O)NCCO)[C@]3(CC[C@@](C)([C@H]4CC[C@](O)(CC)[C@H](C)O4)O3)O2)[C@H](C)C[C@@H]1C` [FLC-00438-1•Na], for which the IC50 in experiment [1] came to 2900 nM; in experiment [2], 7280 nM; in experiment [4], 6460 nM; in experiment [3], 2500 nM.
Turning to `CC[C@@H](C(=O)[C@@H](C)[C@@H](O)[C@H](C)[C@@H]1O[C@@H]([C@@H](CC)C(=O)O)CC[C@@H]1C)[C@H]1O[C@]2(C=C[C@@H](NC(=O)C(=O)NCCN)[C@]3(CC[C@@](C)([C@H]4CC[C@](O)(CC)[C@H](C)O4)O3)O2)[C@H](C)C[C@@H]1C` [FLC-00456-1•Na], the IC50 in experiment [1] is 2850 nM; in the experiment on Hs294T (human melanoma), 8690 nM; in experiment [2], 7290 nM; in experiment [3], 3430 nM.
Consider `CC[C@@H](C(=O)[C@@H](C)[C@@H](O)[C@H](C)[C@@H]1O[C@@H]([C@@H](CC)C(=O)O)CC[C@@H]1C)[C@H]1O[C@]2(C=C[C@@H](NC(=O)C(=O)NCCN3CCOCC3)[C@]3(CC[C@@](C)([C@H]4CC[C@](O)(CC)[C@H](C)O4)O3)O2)[C@H](C)C[C@@H]1C` [FLC-00465-1•Na], for which the IC50 in experiment [1] was determined as 3070 nM; in experiment [3], 3170 nM.
The matching figures for `CC[C@@H](C(=O)[C@@H](C)[C@@H](O)[C@H](C)[C@@H]1O[C@@H]([C@@H](CC)C(=O)O)CC[C@@H]1C)[C@H]1O[C@]2(C=C[C@@H](NC(=O)C(=O)NCCN(C)C)[C@]3(CC[C@@](C)([C@H]4CC[C@](O)(CC)[C@H](C)O4)O3)O2)[C@H](C)C[C@@H]1C` [FLC-00471-1•Na]: 4290 nM and 4730 nM.
As to `CC[C@@H](C(=O)[C@@H](C)[C@@H](O)[C@H](C)[C@@H]1O[C@@H]([C@@H](CC)C(=O)O)CC[C@@H]1C)[C@H]1O[C@]2(C=C[C@@H](NC(=O)C(=O)NCc3ccccc3Cl)[C@]3(CC[C@@](C)([C@H]4CC[C@](O)(CC)[C@H](C)O4)O3)O2)[C@H](C)C[C@@H]1C` [FLC-00477-1•Na], the “SI A2780Cis” value in experiment [1] was 40.4. The figures for the IC50 in experiment [1], in experiment [5] and in experiment [3] were 3.54 nM, 143 nM and 3.11 nM, respectively. Also, the “SI MV4-11” value in experiment [3] is 46.1.
With `CC[C@@H](C(=O)[C@@H](C)[C@@H](O)[C@H](C)[C@@H]1O[C@@H]([C@@H](CC)C(=O)O)CC[C@@H]1C)[C@H]1O[C@]2(C=C[C@@H](NC(=O)C(=O)NCc3ccccn3)[C@]3(CC[C@@](C)([C@H]4CC[C@](O)(CC)[C@H](C)O4)O3)O2)[C@H](C)C[C@@H]1C` [FLC-00478-1•Na], in experiment [1], the “SI A2780Cis” value amounted to 25.9 and the IC50 was 63.6 nM. The IC50 in experiment [5] came out at 1650 nM. Moreover, in experiment [3], the “SI MV4-11” value is 9.2 and the IC50 came to 180 nM.
The matching figures for `CC[C@@H](C(=O)[C@@H](C)[C@@H](O)[C@H](C)[C@@H]1O[C@@H]([C@@H](CC)C(=O)O)CC[C@@H]1C)[C@H]1O[C@]2(C=C[C@@H](NC(=O)C(=O)NCc3cccnc3)[C@]3(CC[C@@](C)([C@H]4CC[C@](O)(CC)[C@H](C)O4)O3)O2)[C@H](C)C[C@@H]1C` [FLC-00479-1•Na]: 15.8, 272 nM, 4300 nM, 12.6 and 343 nM.
The matching figures for `CC[C@@H](C(=O)[C@@H](C)[C@@H](O)[C@H](C)[C@@H]1O[C@@H]([C@@H](CC)C(=O)O)CC[C@@H]1C)[C@H]1O[C@]2(C=C[C@@H](NC(=O)OCCOC(C)(C)C)[C@]3(CC[C@@](C)([C@H]4CC[C@](O)(CC)[C@H](C)O4)O3)O2)[C@H](C)C[C@@H]1C` [FLC-00480-1•Na]: 43.6, 4.25 nM, 185 nM, 9.7 and 19.1 nM.
For `CC[C@@H](C(=O)[C@@H](C)[C@@H](O)[C@H](C)[C@@H]1O[C@@H]([C@@H](CC)C(=O)O)CC[C@@H]1C)[C@H]1O[C@]2(C=C[C@@H](NC(=O)OCCOCCOCCOCCOC)[C@]3(CC[C@@](C)([C@H]4CC[C@](O)(CC)[C@H](C)O4)O3)O2)[C@H](C)C[C@@H]1C` [FLC-00481-1•Na], the “SI A2780Cis” value in experiment [1] was determined as 17.4. Also, the IC50 worked out at 220 nM in experiment [1], 3830 nM in experiment [5] and 320 nM in experiment [3]. Besides, the “SI MV4-11” value in experiment [3] turned out to be 12.0.
Regarding `CC[C@@H](C(=O)[C@@H](C)[C@@H](O)[C@H](C)[C@@H]1O[C@@H]([C@@H](CC)C(=O)O)CC[C@@H]1C)[C@H]1O[C@]2(C=C[C@@H](NC(=O)OCCS(C)(=O)=O)[C@]3(CC[C@@](C)([C@H]4CC[C@](O)(CC)[C@H](C)O4)O3)O2)[C@H](C)C[C@@H]1C` [FLC-00483-1•Na], in experiment [1], the “SI A2780Cis” value is listed as 21.2 and the IC50 was 250 nM. The IC50 in experiment [5] was 5310 nM. In experiment [3], the “SI MV4-11” value came out at 15.7 and the IC50 worked out at 339 nM.
The matching figures for `CC[C@@H](C(=O)[C@@H](C)[C@@H](O)[C@H](C)[C@@H]1O[C@@H]([C@@H](CC)C(=O)O)CC[C@@H]1C)[C@H]1O[C@]2(C=C[C@@H](NC(=O)OCc3ccccc3Cl)[C@]3(CC[C@@](C)([C@H]4CC[C@](O)(CC)[C@H](C)O4)O3)O2)[C@H](C)C[C@@H]1C` [FLC-00484-1•Na]: 95.4, 0.25 nM, 23.9 nM, 40.7 and 0.59 nM.
The matching figures for `CC[C@@H](C(=O)[C@@H](C)[C@@H](O)[C@H](C)[C@@H]1O[C@@H]([C@@H](CC)C(=O)O)CC[C@@H]1C)[C@H]1O[C@]2(C=C[C@@H](NC(=O)OCc3cc(Cl)cc(Cl)c3)[C@]3(CC[C@@](C)([C@H]4CC[C@](O)(CC)[C@H](C)O4)O3)O2)[C@H](C)C[C@@H]1C` [FLC-00485-1•Na]: 23.0, 4.62 nM, 106 nM, 5.3 and 20 nM.
With `CC[C@@H](C(=O)[C@@H](C)[C@@H](O)[C@H](C)[C@@H]1O[C@@H]([C@@H](CC)C(=O)O)CC[C@@H]1C)[C@H]1O[C@]2(C=C[C@@H](NC(=O)c3ccncc3)[C@]3(CC[C@@](C)([C@H]4CC[C@](O)(CC)[C@H](C)O4)O3)O2)[C@H](C)C[C@@H]1C` [FLC-00487-1•Na], in experiment [1], the “SI A2780Cis” value is recorded as 79.6 and the IC50 came out at 45.9 nM. Moreover, the IC50 in experiment [5] came to 3650 nM. For the same compound, in experiment [3], the “SI MV4-11” value came out at 27.5 and the IC50 turned out to be 133 nM.
For `CC[C@@H](C(=O)[C@@H](C)[C@@H](O)[C@H](C)[C@@H]1O[C@@H]([C@@H](CC)C(=O)O)CC[C@@H]1C)[C@H]1O[C@]2(C=C[C@@H](NC(=O)C(=O)NCc3ccncc3)[C@]3(CC[C@@](C)([C@H]4CC[C@](O)(CC)[C@H](C)O4)O3)O2)[C@H](C)C[C@@H]1C` [FLC-00489-1•Na], in experiment [1], the “SI A2780Cis” value was found to be 28.0 and the IC50 is 175 nM. The IC50 in experiment [5] was 4920 nM. For the same compound, in experiment [3], the “SI MV4-11” value was found to be 14.6 and the IC50 stood at 338 nM.
For `CC[C@@H](C(=O)[C@@H](C)[C@@H](O)[C@H](C)[C@@H]1O[C@@H]([C@@H](CC)C(=O)O)CC[C@@H]1C)[C@H]1O[C@]2(C=C[C@@H](NC(=O)N3CCN(CC)C(=O)C3=O)[C@]3(CC[C@@](C)([C@H]4CC[C@](O)(CC)[C@H](C)O4)O3)O2)[C@H](C)C[C@@H]1C` [FLC-00518-1•Na], the IC50 in experiment [1] was 3220 nM; in experiment [3], 3490 nM.
`CC[C@@H](C(=O)[C@@H](C)[C@@H](O)[C@H](C)[C@@H]1O[C@@H]([C@@H](CC)C(=O)O)CC[C@@H]1C)[C@H]1O[C@]2(C=C[C@@H](NC(=O)NCCCN(C)C)[C@]3(CC[C@@](C)([C@H]4CC[C@](O)(CC)[C@H](C)O4)O3)O2)[C@H](C)C[C@@H]1C` [FLC-00562-1•Na]: the values for the IC50 in experiment [1] and in experiment [3] were 3010 nM and 3070 nM, respectively.
The like results for `CC[C@@H](C(=O)[C@@H](C)[C@@H](O)[C@H](C)[C@@H]1O[C@@H]([C@@H](CC)C(=O)O)CC[C@@H]1C)[C@H]1O[C@]2(C=C[C@@H](NC(=O)N(C)CCCN(C)C)[C@]3(CC[C@@](C)([C@H]4CC[C@](O)(CC)[C@H](C)O4)O3)O2)[C@H](C)C[C@@H]1C` [FLC-00563-1•Na] were, in that order, 3120 nM and 3250 nM.
As for `CC[C@@H](C(=O)[C@@H](C)[C@@H](O)[C@H](C)[C@@H]1O[C@@H]([C@@H](CC)C(=O)O)CC[C@@H]1C)[C@H]1O[C@]2(C=C[C@@H](NC(=O)c3cc(OC)c(OC)c(OC)c3)[C@]3(CC[C@@](C)([C@H]4CC[C@](O)(CC)[C@H](C)O4)O3)O2)[C@H](C)C[C@@H]1C` [FLC-00573-1•Na], the results for the IC50 in experiment [5] and in experiment [3] were 1880 nM and 158 nM, respectively.

Source of the values: patent publication US20240294541A1, “COMPOUNDS CONSTITUTING C20-MODIFIED SALINOMYCIN DERIVATIVES, A METHOD FOR OBTAINING THE SAME, A COMPOSITION CONTAINING THE SAME AND A USE OF SAID COMPOUNDS” (FILECLO SPOLKA Z OGRANICZONA ODPOWIEDZIALNOSCIA, priority 2021, published 2024).
